Assay results as given in PubChem BioAssay AID1963837 (Molecular Pharmacology Branch, DTP, NCI, 2024).

System: 843126-344-R-J1-PDC complex spheroid viability
Assay: Anticancer human tumor 843126-344-R-J1-PDC patient-derived melanoma cell line growth inhibition [POLQ]
Conditions: for IC50: curve of first compound; for viability, T/C: stronger effect = lower value; active means viability on the fitted dose curve at most 10% of control; inactive means the rest
Method: Multicellular complex tumor spheroid response to Polymerase (POL) inhibitors (novobiocin, ART-558, RP6685) in combination with a variety of drugs and investigational agents in selected tumor cell lines
The POL inhibitors (novobiocin, ART-558, and RP6685) were evaluated both individually and in combination with standard of care and investigational anticancer small molecules within a complex spheroid model of solid tumors. . Complex spheroids include a stromal component modeled by human endothelial cells (HUVEC) and fibroblasts modeled by human mesenchymal stem cells (MSCs). The concentration ranges selected for each drug and investigational agent were based upon clinically achievable concentrations if the clinical Cmax of the agent was known.
Compounds. The drugs and investigational agents: novobiocin (NSC847541), ART-558 (NSC835418), RP-6685 (NSC848927), peposertib (NSC802822), ceralasertib (NSC780249), elimusertib (NSC800525), camonsertib (NSC841442), AZD-1390 (NSC803789), olaparib (NSC753686), talazoparib (NSC767125), rucaparib (NSC756644), sotorasib (NSC818433), MRTX-1133 (NSC836407), SN-38 (NSC673596), topotecan (NSC609699), epotoside (NSC141540), doxorubicin (NSC123127), gemcitabine (NSC613327), 5-fluorouracil (NSC19893), paclitaxel (NSC125973), vemurafenib (NSC761431), MSA-2 (NSC828583), SN-011 (NSC837082), adavosertib (NSC754352), prexasertib (NSC758257), carboplatin (NSC241240) and oxaliplatin (NSC266046), were obtained from the National Cancer Institute (NCI) Developmental Therapeutics Program Chemical Repository (21). The FDA-approved anticancer drug set is available from the Developmental Therapeutics Program at https://dtp.cancer.gov/organization/dscb/obtaining/. […] The stock solutions were prepared in dimethyl sulfoxide (DMSO, Sigma-Aldrich, St. Louis, MO, cat. D2650), except for the platinum compounds which were prepared in saline (Quality Biological, Gaithersburg, MD, cat. 114-055-101), at 800-fold the tested concentration and stored at -70 degrees C prior to their use. All drugs and investigational agents were tested over a range starting from a high concentration at or near the clinical Cmax and decreasing in half-log increments. If the clinical Cmax for an agent had not been determined, the highest concentration tested was 10 microM, except for SN-38, which was tested at a high concentration of 1 microM.
Cell Culture. All cells were maintained in an incubator at 37 degrees C and 5% CO2 with 95% humidity. The PDC lines were cultured according to standard operating procedures established by the NCI PDMR (https://pdmr.cancer.gov). Table 3 of the manuscript, lists the cell lines along with the number of the three cell types plated to form the mct-spheroids and media for tumor cell growth. After thawing, all PDC lines, except 997537-175-T-J1-PDC and 415267-285-R-J2-PDC, were cultured in Matrigel-coated flasks prepared with a working solution of 1X Ham's F-12 nutrient mix, without supplementation (Thermo Fisher Scientific, cat. 11765054), 100 U/mL penicillin-streptomycin (Thermo Fisher Scientific, cat. 15140122), and 2.5% Matrigel (Corning Inc., Corning, NY, cat. 354248) for the first three passages. The two PDC lines 997537-175-T-J1-PDC and 415267-285-R-J2-PDC were cultured on uncoated flasks. The 857933-349-R-J2-PDC line was cultured in 6C/Colon 1B media containing advanced DMEM/F-12 (Thermo Fisher Scientific, cat. 12634028), 10 mM HEPES (Thermo Fisher Scientific, cat. 15630080), 1X GlutaMAX supplement (Thermo Fisher Scientific, cat. 35050061), 0.1 mg/mL primocin (InvivoGen, San Diego, CA, cat. ant-pm-2), 10% defined fetal bovine serum, heat inactivated (HyClone Laboratories Inc., Logan, UT, cat. SH30070.03HI), 50% L-WRN conditioned media (ATCC, cat. CRL-3276), 1.25 mM N-Acetyl-L-cysteine (Sigma-Aldrich, cat. A9165), 10 mM nicotinamide (Sigma-Aldrich, cat. N0636), 1X B-27 supplement (Thermo Fisher Scientific, cat. 17504044), 1X N-2 supplement (Thermo Fisher Scientific, cat. […]
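Wherever viability, T/C is given: spheroids exposed to drugs for seven days before readout.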

O=C(c1cc(Cc2n[nH]c(=O)c3ccccc23)ccc1F)N1CCN(C(=O)C2CC2)CC1 + COC1C(OC(N)=O)C(O)C(Oc2ccc3c(O)c(NC(=O)c4ccc(O)c(CC=C(C)C)c4)c(=O)oc3c2C)OC1(C)C
> 10 µM: IC50 (second compound 0.0316 µM) | IC50 (second compound 0.1 µM) | IC50 (second compound 0.316 µM) | IC50 (second compound 1 µM) | IC50 (second compound 3.16 µM) | IC50 (second compound 10 µM)
inactive: viability, T/C (second compound 0.0316 µM, first compound 0.0316 µM) 81.4% | viability, T/C (second compound 0.0316 µM, first compound 0.1 µM) 94.9% | viability, T/C (second compound 0.0316 µM, first compound 0.316 µM) 76.9% | viability, T/C (second compound 0.0316 µM, first compound 1 µM) 82.5% | viability, T/C (second compound 0.0316 µM, first compound 3.16 µM) 80.7% | viability, T/C (second compound 0.0316 µM, first compound 10 µM) 63.8% | viability, T/C (second compound 0.1 µM, first compound 0.0316 µM) 76.2% | viability, T/C (second compound 0.1 µM, first compound 0.1 µM) 98.7% | viability, T/C (second compound 0.1 µM, first compound 0.316 µM) 90.2% | viability, T/C (second compound 0.1 µM, first compound 1 µM) 71.9% | viability, T/C (second compound 0.1 µM, first compound 3.16 µM) 80.7% | viability, T/C (second compound 0.1 µM, first compound 10 µM) 61.6% | viability, T/C (second compound 0.316 µM, first compound 0.0316 µM) 91.8% | viability, T/C (second compound 0.316 µM, first compound 0.1 µM) 71.1% | viability, T/C (second compound 0.316 µM, first compound 0.316 µM) 97.9% | viability, T/C (second compound 0.316 µM, first compound 1 µM) 81.5% | viability, T/C (second compound 0.316 µM, first compound 3.16 µM) 80.7% | viability, T/C (second compound 0.316 µM, first compound 10 µM) 73.5% | viability, T/C (second compound 1 µM, first compound 0.0316 µM) 83.3% | viability, T/C (second compound 1 µM, first compound 0.1 µM) 85% | viability, T/C (second compound 1 µM, first compound 0.316 µM) 92.8% | viability, T/C (second compound 1 µM, first compound 1 µM) 92.3% | viability, T/C (second compound 1 µM, first compound 3.16 µM) 100% | viability, T/C (second compound 1 µM, first compound 10 µM) 63.6% | viability, T/C (second compound 3.16 µM, first compound 0.0316 µM) 71.1% | viability, T/C (second compound 3.16 µM, first compound 0.1 µM) 81.7% | viability, T/C (second compound 3.16 µM, first compound 0.316 µM) 106% | viability, T/C (second compound 3.16 µM, first compound 1 µM) 76.5% | viability, T/C (second compound 3.16 µM, first compound 3.16 µM) 83.5% | viability, T/C (second compound 3.16 µM, first compound 10 µM) 66.1% | viability, T/C (second compound 10 µM, first compound 0.0316 µM) 91% | viability, T/C (second compound 10 µM, first compound 0.1 µM) 72% | viability, T/C (second compound 10 µM, first compound 0.316 µM) 96.1% | viability, T/C (second compound 10 µM, first compound 1 µM) 80.6% | viability, T/C (second compound 10 µM, first compound 3.16 µM) 80.6% | viability, T/C (second compound 10 µM, first compound 10 µM) 61%
